Results taken from patent EP1268431B1 (Wyeth, priority 2000, dated 2001).
Several values for one entry are separate records, joined by “and”; a condition that tells them apart may be missing. Equal values may be shown once. Read-outs that look alike come from different tables or passages of the source.

Legend:
c-Src = biological target: T1, c-Src (Homo sapiens, UniProt P12931); assay: c-Src Kinase Assay (ELISA format); type: biochemical
T1 construct: purchased Upstate Biotechnologies
Summary of the method: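 Partially purified Src preincubated with compound and biotinylated peptide 10 min at 30 °C in Tris-HCl pH 7.5 with MgCl2, EGTA, vanadate; ATP-started reaction ran 1 h at 30 °C, EDTA-stopped. Phosphopeptide captured on streptavidin, detected by HRP anti-phosphotyrosine; % inhibition = (1 − Abs/Abs(max)) × 100.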

[1] = test system: Rat2 fibroblasts stably transformed with a plasmid containing a CMV promotor controlled v-Src/Hu c-Src fusion gene; assay: Anchorage Independent Src-transformed Fibroblast Proliferation Assay
[2] = read-out: anch-indep src-tx fib IC50, suspension growth, MTS on Day 5
[3] = Rattus norvegicus, Rat2, 120 h, read-out: anch-indep src-tx fib IC50, suspension growth, MTS on Day 5

Molecule	IC50 (c-Src)	inhibition at 0.1 µM (c-Src; at 100 nM) [%]	IC50 [1, 2]	IC50 [1, 3] [nM]	IC50 ([1]; Rattus norvegicus, Rat2, 120 h, read-out: anch-indep src-tx fib IC50) [nM]
4-(2.4-Dichloro-5-methoxyanilino)-7-(3-formyl)-3-guinolinecarbonitrile [Example 112]	36 nM	–	7300 nM	–	–
COc1cc(Nc2c(C#N)cnc3cc(-c4cc(CN5CCOCC5)c(CN5CCOCC5)s4)ccc23)c(Cl)cc1Cl [Example 20, 7-[4,5-Bis(4-morpholinylmethyl)-2-thienyl]-4-(2,4-dichloro-5-methoxyanilino)-3-quinolinecarbonitrile]	1.1 nM and 0.8 nM	–	30 nM	40	–
N#Cc1cnc2cc(-c3csc(CN4CCOCC4)c3)ccc2c1Nc1ccc(Cl)cc1Cl [Example 25, 4-(2,4-Dichloroanilino)-7-[5-(4-morpholinylmethyl)-3-thienyl]-3-quinolinecarbonitrile]	3.6 nM and 6 nM and 4.9 nM	–	930 nM	1300	–
COc1ccc(C#Cc2ccc3c(Nc4cc(OC)c(Cl)cc4Cl)c(C#N)cnc3c2)cc1 [Example 90, 4-(2,4-Dichloro-5-methoxyanilino)-7-[2-(4-methoxyphenyl)ethynyl]-3-quinolinecarbonitrile]	–	10	–	> 10000	–
COc1cc(Nc2c(C#N)cnc3cc(-c4ncccc4CN4CCOCC4)ccc23)c(Cl)cc1Cl [Example 111, 4-(2,4-Dichloro-5-methoxyanilino)-7-[3-(morpholin-4-ylmethyl)-pyridin-2-yl]-3-quinolinecarbonitrile]	410 nM	–	–	> 10000	–
COc1cc(Nc2c(C#N)cnc3cc(-c4cccc(N)c4)ccc23)c(Cl)cc1Cl [Example 174, 7-(3-aminophenyl)-4-(2,4-dichloro-5-methoxyanilino)-3-quinolinecarbonitrile]	95 nM	–	–	5600	–
N#Cc1cnc2cc(C=CCCCN3CCOCC3)ccc2c1Nc1ccc(Cl)cc1Cl (mixture of isomers) [Example 12, 4-(2,4-Dichloroanilino)-7-[(E/Z)-5-(4-morpholin)-1-pentenyl]-3-quinolinecarbonitrile]	77 nM	–	–	> 10000	–
COc1cc(Nc2c(C#N)cnc3cc(-c4cc5ccccc5s4)ccc23)c(Cl)cc1Cl [Example 120]	170 nM	–	> 10000 nM	–	–
COc1cc(Nc2c(C#N)cnc3cc(-c4ccc(CN5CCCC5C(N)=O)cc4)ccc23)c(Cl)cc1Cl (stereo in doubt) [Example 84, (2R)-1-{4-[3-Cyano-4-(2,4-dichloro-5-methoxyanilino)-7-quinolinyl]benzyl}-2-pyrrolidinecarboxamide]	7.5 nM	–	–	–	770
COc1cc(Nc2c(C#N)cnc3cc(-c4ccc(CN5CCOCC5)cc4)ccc23)c(Cl)cc1Cl [Example 29, 4-(2,4-Dichloro-5-methoxyanilino)-7-[4-(4-morpholinylmethyl)phenyl]-3-quinolinecarbonitrile]	4.1 nM and 2.5 nM	–	500 nM	540	–
COc1cc(Nc2c(C#N)cnc3cc(-c4ccc(C=O)cc4)ccc23)c(Cl)cc1Cl [Example 83, 4-(2.4-Dichloro-5-methoxyanilino)-7-(4-formylphenyl)-3-quinolinecarbonitrile]	42 nM	–	–	3900	–
COc1cc(Nc2c(C#N)cnc3cc(-c4ccccc4C=O)ccc23)c(Cl)cc1Cl [Example 114, 4-(2,4-Dichloro-5-methoxyanilino)-7-(2-formylphenyl)-3-quinolinecarbonitrile]	2200 nM	–	–	> 10000	–
COc1cc(Nc2c(C#N)cnc3cc(-c4ccc(CNCCS(=O)(=O)c5ccccc5)n4C)ccc23)c(Cl)cc1Cl [Example 72, 4-(2,4-Dichloro-5-methoxyanilino)-7-[1-methyl-5-({[2-(phenylsulfonyl)ethyl]amino}methyl)-1H-pyrrol-2-yl]-3-quinolinecarbonitrile]	78 nM	–	–	> 10000	–
COc1cc(Nc2c(C#N)cnc3cc(-c4ccc(CN5CCC(C(=O)O)CC5)cc4)ccc23)c(Cl)cc1Cl [Example 237, 1-{4-[3-cyano-4-(2,4-dichloro-5-methoxyanilino)-7-quinolinyl]benzyl}-4-piperidinecarboxylic acid]	0.18 nM (2×) and 0.55 nM	–	520 nM and 410 nM	490	–
COc1cc(Nc2c(C#N)cnc3cc(C#Cc4ccc(C)cc4)ccc23)c(Cl)cc1Cl [Example 141, 4-(2,4-dichloro-5-methoxyanilino)-7-[2-(4-methylphenyl)ethynyl]-3-quinolinecarbonitrile]	750 nM	–	–	> 10000	–

Further molecules by falling IC50 (c-Src), results first:

IC50 (c-Src)	inhibition at 0.1 µM (c-Src; at 100 nM) [%]	Molecule	IC50 [1, 2]	IC50 [1, 3] [nM]	IC50 ([1]; Rattus norvegicus, Rat2, 120 h, read-out: anch-indep src-tx fib IC50) [nM]
19 nM	–	COc1cc(Nc2c(C#N)cnc3cc(-c4ccc(CN5CCOCC5)cc4)c(OC)cc23)c(Cl)cc1Cl [Example 37, 4-(2,4-Dichloro-5-methoxyanilino)-6-methoxy-7-[4-(4-molpholinylmethyl)phenyl]-3-quinolinecarbonitrile]	1490 nM	1590	–
10 nM	–	COc1cc(Nc2c(C#N)cnc3cc(-c4ccc(-c5nnn[nH]5)cc4)ccc23)c(Cl)cc1Cl [Example 105]	5900 nM	> 10000	–
7.2 nM	–	COc1cc(Nc2c(C#N)cnc3cc(-c4ccc(CN5CCOCC5)cc4)ccc23)c(Cl)cc1C [Example 234, 4-(2-chloro-5-methoxy-4-methylanilino)-7-[4-(4-morpholinylmethyl)phenyl]-3-quinolinecarbonitrile]	–	720	–
3 nM	–	COc1cc(Nc2c(C#N)cnc3cc(-c4ccc(CNCCS(C)(=O)=O)cc4)ccc23)c(Cl)cc1Cl [Example 88, 4-(2,4-Dichloro-5-methoxyanilino)-7-[4-({[2-(methylsulfonyl)ethyl]amino}methyl)phenyl]-3-quinolinecarbonitrile]	–	850	–
2.1 nM	–	COc1cc(Nc2c(C#N)cnc3cc(-c4csc(CN5CCC(O)CC5)c4)ccc23)c(Cl)cc1Cl [Example 192, 4-(2,4-dichloro-5-methoxyanilino)-7-{5-[(4-hydroxy-1-piperidnyl)methyl]-3-thienyl}-3-quinolinecarbonitrile]	–	170	–
2 nM	–	COc1cc(Nc2c(C#N)cnc3cc(-c4ccc(CN5CCOCC5)s4)ccc23)c(Cl)cc1Cl [Example 23, 4-(2,4-Dichloro-5-methoxyanilino)-7-[5-(4-morpholinylmethyl)-2-thienyl]-3-quinolinecarbonitrile]	–	90	–
1.9 nM	–	COc1cc(Nc2c(C#N)cnc3cc(-c4csc(CN5CCOCC5)c4)c(OC)cc23)c(Cl)cc1Cl [Example 36, 4-(2,4-Dichloro-5-methoxyanilino)-6-methoxy-7-[5-(4-morpholinylmethyl)-3-thienyl]-3-quinolinecarbonitrile]	200 nM	160	–
0.57 nM	–	COc1cc(Nc2c(C#N)cnc3cc(-c4ccc(CN5CCC(CC(=O)O)CC5)cc4)ccc23)c(Cl)cc1Cl [Example 100, (1-{4-[3-Cyano-4-(2,4-dichloro-5-methoxyanilino)-7-quinolinyl]benzyl}-4-piperidinyl)acetic acid]	400 nM	340	–
0.23 nM	–	CCN1CCN(c2ccc(-c3ccc4c(Nc5cc(OC)c(Cl)cc5Cl)c(C#N)cnc4c3)nc2)CC1 [Example 179, 4-[(2,4-dichloro-5-methoxyphenyl)amino]-7-[5-(4-ethyl-1-piperazinyl)-2-pyridinyl]-3-quinolinecarbonitrile]	–	270	–
